Results reported in patent publication US8158593B2, “GPR17 modulators, method of screening and uses thereof” (Universita' degli Studi di Milano, priority 2004, dated 2012).
Like-named read-outs stand apart in the source and are kept apart here. Blank lines part the entries; values can stand above or below the compound they belong to.

Tests used:
rat GPR17 = target: T1, rat GPR17 (Rattus norvegicus, UniProt Q09QM4); assay: [35S]GTPγS binding to membranes of 1321N1 cells expressing rat GPR17; type: biochemical; details: for IC50: rat GPR17; for EC50: agonist, 1321N1 cells expressing rat GPR17
T1 construct: expressed in transfected cells; host or cells: 1321N1; pcDNA3.1
T1 sequence (Q09QM4 whole entry): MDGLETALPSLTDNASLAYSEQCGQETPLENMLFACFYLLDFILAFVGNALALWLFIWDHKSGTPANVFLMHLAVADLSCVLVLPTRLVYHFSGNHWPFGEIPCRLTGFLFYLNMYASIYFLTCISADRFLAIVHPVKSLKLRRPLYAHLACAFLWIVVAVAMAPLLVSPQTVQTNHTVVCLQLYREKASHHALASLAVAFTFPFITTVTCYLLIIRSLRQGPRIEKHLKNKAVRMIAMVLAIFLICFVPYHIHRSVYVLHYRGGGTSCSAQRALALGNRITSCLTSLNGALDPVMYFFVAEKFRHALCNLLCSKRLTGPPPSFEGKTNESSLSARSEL
Protocol: (§1) [^35S]GTPγS Binding Assay. 1321N1 cells, COS-7 and HEK-293 cells (control and transfected cells) were homogenized in 5 mM TRIS-HCl, 2 mM EDTA, pH 7.4 and centrifuged at 48000 g for 15 min at 4° C. The resulting pellets (plasma membranes) were washed in 50 mM TRIS-HCl, 10 mM MgCl2, pH 7.4 and stored at −80° C. until used. Measurement of nucleotide-stimulated [^35S]GTPγS binding to membranes of cells expressing the human or rat GPR17 receptor was performed as previously described^9-11.
(§2) To identify the endogenous ligand of GPR17, the cDNAs from human and rat GPR17 were cloned into the mammalian expression vector pcDNA3.1 and transfected in 1321N1, COS-7 and HEK-293 cells for functional characterization. GPR17 activation was assessed by testing the ability of exogenously-added ligands to increase [^35S]GTPγS binding to purified membranes obtained from transfected cells^9-11. […] The specificity of GPR17 responses were also challenged by assessing the ability of some purinergic and leukotriene receptor antagonists to counteract the increase of [^35S]GTPγS binding evoked by nucleotides and cys-LTs in 1321N1 cells expressing either the human or rat receptor. […] Because both P2Y^2,11,12 and CysLT receptors^3,13 may couple to G proteins of the Gi subfamily, to evaluate the involvement of this class of G-proteins, we preincubated 1321N1 cells expressing hGPR17 with pertussis toxin (PTX) which inactivates Gi proteins, prior to membrane preparation and [^35S]GTPγS binding.
(§3) Table 1. Potency of various ligands on [^35S]GTPγS binding to membranes obtaind from 1321N1 cells-transfected with human or rat GPR17. […] All data represent the mean of triplicate determinations from 4-9 independent experiments.

hGPR17 [1] = target: T2, hGPR17 (Homo sapiens, UniProt Q13304); assay: [35S]GTPγS binding to membranes of 1321N1 cells expressing human GPR17; type: biochemical; set-up: expressed in transfected cells; host or cells: 1321N1 (A1, A5), COS-7 (A3, A6), HEK-293 (A4); pcDNA3.1; details: for effect on [35S]GTPγS binding (agonist response): tested at 10 and 50 μM, 1321N1 cells expressing hGPR17; for EC50: agonist, 1321N1 cells expressing human GPR17
T2 sequence (Q13304 29-367): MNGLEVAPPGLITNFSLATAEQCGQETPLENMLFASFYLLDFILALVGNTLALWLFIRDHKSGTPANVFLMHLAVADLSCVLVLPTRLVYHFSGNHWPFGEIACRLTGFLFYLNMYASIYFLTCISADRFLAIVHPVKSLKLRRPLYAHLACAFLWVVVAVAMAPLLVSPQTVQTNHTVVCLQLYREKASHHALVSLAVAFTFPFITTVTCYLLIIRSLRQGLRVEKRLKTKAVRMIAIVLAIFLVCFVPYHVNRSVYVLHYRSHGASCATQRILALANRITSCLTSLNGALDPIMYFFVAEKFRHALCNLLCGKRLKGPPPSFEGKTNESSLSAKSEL
Protocol: as §1, §2, §3

hGPR17 [2] = target: T2, hGPR17; assay: Single cell calcium imaging in COS-7 cells expressing hGPR17; type: cell-based; set-up: expressed in transfected cells; host or cells: COS-7 (A3, A6); pcDNA3.1
From the text: (e-h) The same agonists induced no responses in cells transfected with the empty plasmid. […] Polychrome IV (TILL Photonics, Germany) was used as light source. Fura-2 and EGFP fluorescence images were collected with a PCO Super […] (Axon Instruments, Forest City, Calif.) and analyzed with the Axon Imaging Workbench 2.2 software (Axon Instruments).

hGPR17 [3] = target: T2, hGPR17; assay: [35S]GTPγS binding, COS-7 cells expressing hGPR17; type: biochemical; set-up: expressed in transfected cells; host or cells: COS-7 (A3, A6); pcDNA3.1; details: COS-7 cells transfected with hGPR17
Protocol: as §1
To identify the endogenous ligand of GPR17, the cDNAs from human and rat GPR17 were cloned into the mammalian expression vector pcDNA3.1 and transfected in 1321N1, COS-7 and HEK-293 cells for functional characterization. GPR17 activation was assessed by testing the ability of exogenously-added ligands to increase [^35S]GTPγS binding to purified membranes obtained from transfected cells^9-11. […] The specificity of GPR17 responses were also challenged by assessing the ability of some purinergic and leukotriene receptor antagonists to counteract the increase of [^35S]GTPγS binding evoked by nucleotides and cys-LTs in 1321N1 cells expressing either the human or rat receptor. […]

hGPR17 [4] = target: T2, hGPR17; assay: Single cell calcium imaging in 1321N1 cells expressing hGPR17; type: cell-based; set-up: expressed in transfected cells; host or cells: 1321N1 (A1, A5), COS-7 (A3, A6), HEK-293 (A4); pcDNA3.1
From the text: Polychrome IV (TILL Photonics, Germany) was used as light source. Fura-2 and EGFP fluorescence images were collected with a PCO Super […] (Axon Instruments, Forest City, Calif.) and analyzed with the Axon Imaging Workbench 2.2 software (Axon Instruments).

[5] = system: ischemic brain damage (MCAo); assay: Permanent middle cerebral artery occlusion (MCAo), brain infarct size by MRI; type: in vivo, rat; details: 400 ng/animal i.c.v. 48 and 24 h before and 10 min after MCAo
Protocol: Quantitative analysis of infarct size volume at 24 and 48 h after MCAo from rats receiving vehicle (C1, n=5) or Mtk (2 mg/kg intravenously, i.v., 10 min after MCAO; n=6); vehicle (C2, n=5) or AR-C (4.5 μg/animal intracerebroventricularly, i.c.v., 10 min after MCAo, n=5), vehicle (C3, n=5) or either oligo616 or scrambled-oligo (400 ng/animal, i.c.v., 48, 24 before and 10 min after MCAo, n=5). Data are expressed as percentage variation of infarct volume at 24 and 48 hours after MCAo compared to 2 h considered as 100% (§ p<0.05, # p<0.01 vs volume at 2 hr; *p <0.05, **p<0.01 vs corresponding control evaluated at the same time point). Induction of focal brain ischemia in the rat. Male Sprague-Dawley rats (Charles River) underwent permanent middle cerebral artery occlusion (MCAo) as previously described^28,29. […] AR-C was utilized here to simply test the involvement of GPR17 in brain ischemia, and, being a very polar molecule which is likely to very poorly permeate the blood brain barrier, it was administered i.c.v. Oligo-616 and oligo-scramble (400 ng in 5 μl of physiological solution) were administered i.c.v three times to each rat 48, 24 h before and 10 minutes after MCAo. Control groups received corresponding vehicle i.c.v. Magnetic Resonance Imaging analysis. […]

rGPR17 mRNA = assay: Antisense down-regulation of rGPR17 mRNA in HEK-293 cells (RT-PCR); type: cell-based, rat; details: 0.3 μM, added 16 and 40 h after transfection
Protocol: FIG. 4.1 Target sequences of synthesized anti-sense oligonucleotides on rGPR17 mRNA. (a) The various anti-sense sequences were named based on the rat coding sequence (GenBank accession No.: AC112062); black arrows indicate beginning and ending of the coding sequences. All oligonucleotides, including the “scrambled” sequence, were designed as described in Methods. All these sequences were tested in vitro on HEK-293 cells expressing rGPR17 in order to select the most appropriate oligonucleotides to be utilized for the in vivo studies. Two typical experiments are shown in (b), one aimed at assaying oligo616, oligo241 and oligo99, and the other one aimed at assaying oligoSTART and oligoEND, all in comparison with scrambled oligo sequences run in parallel. On day 2 after plating, cells were transfected with pcDNA3.1 containing the construct encoding for rGPR17 together with the neomycin resistance gene, here utilized as a reported gene. […] Twenty-four h after the last Fugene addition, RNA was extracted from cells as described in Methods, and the transcripts for both rGPR17 and the neomycin resistance gene determined as specific RT-PCR amplification products of 1079 and 357 bp, respectively, as indicated. […]

IC50 (rat GPR17; antagonist of binding stimulated by 50 μM UDP-glucose): 0.022 ± 0.0015 nM
Compound: CSCCNc1nc(SCCC(F)(F)F)nc2c1ncn2C1OC(COP(=O)(O)OP(=O)(O)C(Cl)(Cl)P(=O)(O)O)C(O)C1O (stereo not drawn) [AR-C69931MX, N6-methylthio-ethyl-2-trifluoromethyl-ethylthio-adenosin-5′beta-methylene, γ-dichloromethylene trisphosphate]

IC50 (hGPR17 [1]; antagonist of activation induced by 100 nM LTD4, human GPR17): 10.5 ± 1.2 nM | IC50 (rat GPR17; antagonist of activation induced by 100 nM LTD4): 31 ± 2.4 nM
Compound: O=C(Nc1cccc2c(=O)cc(-c3nnn[nH]3)oc12)c1ccc(OCCCCc2ccccc2)cc1 [Pranlukast]

Compound: Nc1ncnc2c1ncn2[C@@H]1O[C@H](COP(=O)(O)OP(=O)(O)O)[C@@H](O)[C@H]1O [ADP]
effect on [35S]GTPγS binding (agonist response) (hGPR17 [1]): No other nucleotides or nucleosides (i.e., ATP, ADP, 2-methyl-thio-ADP, UTP, α,βmethylenATP and guanosine, all tested at 10 and 50 μM concentrations) had any effect

Compound: PTX
inhibition of agonist-stimulated [35S]GTPγS binding (hGPR17 [1]; cells exposed to 100 ng/ml PTX for 18 h before membrane preparation, stimulated by UDP, UDP-galactose, UDP-glucose or LTD4): strongly inhibited

cells showing [Ca2+]i transient (hGPR17 [2]): approximately 50% | mean calcium response ΔF340/380 (hGPR17 [2]; n=22): 0.18±0.03 | response in [35S]GTPγS binding (hGPR17 [3]): induced responses | EC50 (hGPR17 [1]): 7.2 ± 0.3 nM | cells showing rise of [Ca2+]i (hGPR17 [4]): approximately 30% | EC50 (rat GPR17): 5.9 ± 0.4 nM
Compound: CCCCC/C=C\C\C=C/C=C/C=C/[C@@H](SC[C@H](N)C(=O)NCC(=O)O)[C@@H](O)CCCC(=O)O [LTD, LTD4]

Compound: Nc1nc2c(ncn2[C@@H]2O[C@H](CO)[C@@H](O)[C@H]2O)c(=O)[nH]1 [guanosine]
effect on [35S]GTPγS binding (agonist response) (hGPR17 [1]): No other nucleotides or nucleosides (i.e., ATP, ADP, 2-methyl-thio-ADP, UTP, α,βmethylenATP and guanosine, all tested at 10 and 50 μM concentrations) had any effect

IC50 (hGPR17 [1]): 60 ± 4.3 nM
Compound: CC(C)(O)c1ccccc1CC[C@@H](SCC1(CC(=O)O)CC1)c1cccc(/C=C/c2ccc3ccc(Cl)cc3n2)c1 [Montelukast]

IC50 (hGPR17 [1]; antagonist of binding stimulated by 50 μM UDP-glucose, human GPR17): 508 ± 29 nM
Compound: N6-methyl-adenosin-3′,5′-bis-phosphate [MRS 2179]

Compound: Nc1ncnc2c1ncn2[C@@H]1O[C@H](COP(=O)(O)OP(=O)(O)OP(=O)(O)O)[C@@H](O)[C@H]1O [ATP]
effect on [35S]GTPγS binding (agonist response) (hGPR17 [1]): No other nucleotides or nucleosides (i.e., ATP, ADP, 2-methyl-thio-ADP, UTP, α,βmethylenATP and guanosine, all tested at 10 and 50 μM concentrations) had any effect

response in [35S]GTPγS binding (hGPR17 [3]): induced responses | EC50 (hGPR17 [1]): 0.33 ± 0.011 nM | EC50 (rat GPR17): 65 ± 4.2 nM
Compound: CCCCC/C=C\C\C=C/C=C/C=C/[C@@H](SC[C@H](NC(=O)CC[C@H](N)C(=O)O)C(=O)NCC(=O)O)[C@@H](O)CCCC(=O)O [LTC, LTC4]

Compound: CSc1nc(N)c2ncn([C@@H]3O[C@H](COP(=O)(O)OP(=O)(O)O)[C@@H](O)[C@H]3O)c2n1 [2-methyl-thio-ADP]
effect on [35S]GTPγS binding (agonist response) (hGPR17 [1]): No other nucleotides or nucleosides (i.e., ATP, ADP, 2-methyl-thio-ADP, UTP, α,βmethylenATP and guanosine, all tested at 10 and 50 μM concentrations) had any effect

Compound: Nc1ncnc2c1ncn2[C@@H]1O[C@H](COP(=O)(O)CP(=O)(O)OP(=O)(O)O)[C@@H](O)[C@H]1O [α,βmethylenATP]
effect on [35S]GTPγS binding (agonist response) (hGPR17 [1]): No other nucleotides or nucleosides (i.e., ATP, ADP, 2-methyl-thio-ADP, UTP, α,βmethylenATP and guanosine, all tested at 10 and 50 μM concentrations) had any effect

Compound: oligo241: antisense oligonucleotide designed on the sequence of rGPR17 mRNA, SEQ ID NO: 2, unmodified (antisense GGGATCACAAGTCAGGCAC; unmodified DNA; listed as Rattus norvegicus)
evolution of brain infarct size (MRI) [5]: smaller protective effect

Compound: O=c1ccn([C@@H]2O[C@H](COP(=O)(O)OP(=O)(O)OP(=O)(O)O)[C@@H](O)[C@H]2O)c(=O)[nH]1 [UTP]
effect on [35S]GTPγS binding (agonist response) (hGPR17 [1]): No other nucleotides or nucleosides (i.e., ATP, ADP, 2-methyl-thio-ADP, UTP, α,βmethylenATP and guanosine, all tested at 10 and 50 μM concentrations) had any effect

Compound: oligo616: antisense oligonucleotide designed on the sequence of rGPR17 mRNA, SEQ ID NO: 1, unmodified (antisense AACTGTACCGGGAGAAGGCC; unmodified DNA; listed as Rattus norvegicus)
evolution of brain infarct size (MRI) [5]: markedly and significantly attenuated infarct size evolution | attenuation of rGPR17 mRNA / in vitro expression of rGPR17 (rGPR17 mRNA): able to attenuate rGPR17 mRNA
